Measurements reported in ChEMBL document CHEMBL1201862, “PubChem BioAssay data set” (2004).
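1) Cells in 96-well plates. 2) Compound, 48 h, 5 concentrations. 3) Linear interpolation between surrounding doses. 4) Unreached endpoint = highest concentration. GI50 marks 50% less growth.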 The source made the active and inactive calls. No stated cut-off is given here; in the data, active = GI50 up to about 1.1 µM and inactive = higher.

Tests used:
Assay in all cases: DTP human tumour cell line panel, 48 h
786-0 = test system: 786-0
A498 = test system: A498
A549 = test system: A549
ACHN = test system: ACHN
CAKI-1 = test system: CAKI-1
CCRF-CEM = test system: CCRF-CEM
COLO 205 = test system: COLO 205
DLD-1 = test system: DLD-1
DMS-114 = test system: DMS-114
DMS-273 = test system: DMS-273
EKVX = test system: EKVX
HCC 2998 = test system: HCC 2998
HCT-116 = test system: HCT-116
HCT-15 = test system: HCT-15
HL-60 = test system: HL-60
HOP-18 = test system: HOP-18
HOP-62 = test system: HOP-62
HOP-92 = test system: HOP-92
HT-29 = test system: HT-29
IGROV-1 = test system: IGROV-1
K562 = test system: K562
KM-20L2 = test system: KM-20L2
KM12 = test system: KM12
LOX IMVI = test system: LOX IMVI
LXFL 529 = test system: LXFL 529
M14 = test system: M14
M19-MEL = test system: M19-MEL
MOLT-4 = test system: MOLT-4
Malme-3M = test system: Malme-3M
NCI-H226 = test system: NCI-H226
NCI-H23 = test system: NCI-H23
NCI-H460 = test system: NCI-H460
NCI-H522 = test system: NCI-H522
OVCAR-3 = test system: OVCAR-3
OVCAR-4 = test system: OVCAR-4
OVCAR-5 = test system: OVCAR-5
OVCAR-8 = test system: OVCAR-8
RPMI-8226 = test system: RPMI-8226
RXF 393 = test system: RXF 393
RXF 631 = test system: RXF 631
SF-268 = test system: SF-268
SF-295 = test system: SF-295
SF-539 = test system: SF-539
SK-MEL-28 = test system: SK-MEL-28
SK-MEL-2 = test system: SK-MEL-2
SK-MEL-5 = test system: SK-MEL-5
SK-OV-3 = test system: SK-OV-3
SN12C = test system: SN12C
SNB-19 = test system: SNB-19
SNB-75 = test system: SNB-75
SNB-78 = test system: SNB-78
SR = test system: SR
TK-10 = test system: TK-10
U-251 = test system: U-251
UACC-257 = test system: UACC-257
UACC-62 = test system: UACC-62
UO-31 = test system: UO-31
XF498 = test system: XF498
SW-620 = test system: SW-620

Measured: GI50

CCO/C=C/C(C)C1(C(=O)OCC)CCCCC1=O (stereo not given)
inactive: 786-0 56.8 µM | A498 > 100 µM | A549 > 100 µM | ACHN > 100 µM | CAKI-1 > 100 µM | CCRF-CEM > 100 µM | COLO 205 > 100 µM | DLD-1 > 100 µM | DMS-114 86.9 µM | DMS-273 21.4 µM | EKVX > 100 µM | HCC 2998 > 100 µM | HCT-116 > 100 µM | HL-60 71.1 µM | HOP-18 > 100 µM | HOP-62 > 100 µM | HOP-92 > 100 µM | HT-29 > 100 µM | IGROV-1 > 100 µM | K562 > 100 µM | KM-20L2 > 100 µM | KM12 > 100 µM | LOX IMVI 45.9 µM | LXFL 529 > 100 µM | M14 > 100 µM | M19-MEL > 100 µM | MOLT-4 > 100 µM | Malme-3M > 100 µM | NCI-H226 > 100 µM | NCI-H23 > 100 µM | NCI-H460 > 100 µM | NCI-H522 > 100 µM | OVCAR-3 > 100 µM | OVCAR-4 > 100 µM | OVCAR-5 > 100 µM | OVCAR-8 > 100 µM | RPMI-8226 84.1 µM | RXF 393 > 100 µM | RXF 631 > 100 µM | SF-268 > 100 µM | SF-295 > 100 µM | SF-539 > 100 µM | SK-MEL-28 > 100 µM | SK-MEL-2 > 100 µM | SK-MEL-5 > 100 µM | SK-OV-3 > 100 µM | SN12C > 100 µM | SNB-19 > 100 µM | SNB-75 > 100 µM | SNB-78 > 100 µM | SR > 100 µM | TK-10 > 100 µM | U-251 > 100 µM | UACC-257 > 100 µM | UACC-62 > 100 µM | UO-31 > 100 µM | XF498 > 100 µM
63.1 µM: HCT-15

Cc1cn(C2CC(O)C(CO)C2C)c(=O)[nH]c1=O (stereo not given)
inactive: A549 > 100 µM | ACHN > 100 µM | CCRF-CEM > 100 µM | COLO 205 > 100 µM | DLD-1 > 100 µM | DMS-114 > 100 µM | DMS-273 > 100 µM | EKVX > 100 µM | HCC 2998 > 100 µM | HCT-116 > 100 µM | HL-60 > 100 µM | HOP-18 > 100 µM | HOP-62 > 100 µM | HOP-92 > 100 µM | HT-29 > 100 µM | IGROV-1 > 100 µM | K562 > 100 µM | KM-20L2 > 100 µM | KM12 > 100 µM | LOX IMVI > 100 µM | LXFL 529 > 100 µM | M14 > 100 µM | M19-MEL > 100 µM | MOLT-4 > 100 µM | Malme-3M > 100 µM | NCI-H226 > 100 µM | NCI-H23 > 100 µM | NCI-H460 > 100 µM | NCI-H522 > 100 µM | OVCAR-3 > 100 µM | OVCAR-4 > 100 µM | OVCAR-5 > 100 µM | OVCAR-8 > 100 µM | RXF 393 > 100 µM | RXF 631 > 100 µM | SF-268 > 100 µM | SF-295 > 100 µM | SF-539 > 100 µM | SK-MEL-28 > 100 µM | SK-MEL-2 > 100 µM | SK-OV-3 > 100 µM | SN12C > 100 µM | SNB-19 > 100 µM | SNB-75 > 100 µM | SNB-78 > 100 µM | SW-620 > 100 µM | U-251 > 100 µM | UACC-257 > 100 µM | UACC-62 > 100 µM | UO-31 > 100 µM | XF498 > 100 µM
> 100 µM: HCT-15
